Legend:
[1] = molecular target: T1, GSK-3β (Homo sapiens, UniProt P49841); test: GSK-3β kinase assay (Z'-LYTE Kinase Assay kit Ser/Thr 9 Peptide); type: biochemical
T1 construct: GST (N, cleaved yes); made in house; host or cells: Escherichia coli BL21-Codon Plus (DE3)
Protocol: (§1) GSK3β belongs to CMGC family. Here, the other family members were used to evaluate the selectivity of GSK3β inhibitors, including PKC-epsilon (AGC family), JAK2 (TK family), Braf (TKL family), DRAK2 (CAMK family) and IKKβ (other family).The recombinant GST-GSK-3βprotein was expressed in Escherichia coli strain BL21-Codon Plus (DE3), purified by GSTrap affinity chromatography, and cleaved by thrombin. The GSK-3β kinase assay was carried out with the Z´-LYTETM Kinase Assay kit Ser/Thr 9 Peptide substrate (Invitrogen, Grand, NY, USA) in 10 μL reaction volume containing 50 nM enzyme, 30 μM ATP and 2 μM substrate peptide. Drak2 Proteins were presented by professor Jiang-ping Wu (Laboratory of Immunology, Research Centre, CHUM, Notre Dame Hospital, Pavilion DeSève). The Drak2 kinase reaction was performed in a final assay volume of 3.4 μL using the ADP-GLO Kinase Assay Kit (Promega, Madison, WI, USA), according the ADP-GLO protocol and read on an EnVision plate reader. The recombinant PKC-epsilon, IKKβ, and JAK2 with N-terminal His-tag were expressed using baculovirus expression system and purified with Ni-Beads. BRAF protein was from Carna Biosciences, Inc. (Kobe Port Island, Japan). And the related kinase reactions were performed in a final assay volume of 10 μL using the related HTRF Assay Kit (Cisbio, Codolet, France). Reactions were according the HTRF protocol and read on an EnVision plate reader. All reactions were carried out in triplicate. […] Data were expressed as mean ± SE.

[2] = molecular target: T2, JAK2 (Homo sapiens, UniProt O60674); test: JAK2 kinase assay (HTRF); type: biochemical; details: read-out: JAK2 inhibition% at 0.8 μg/mL (~2 μM)
T2 construct: His-tag (N); made in house
Protocol: as §1

[3] = molecular target: T3, IKK2 (Homo sapiens, UniProt O14920); test: IKK2 (IKKβ) kinase assay (HTRF); type: biochemical; details: read-out: IKK2 inhibition% at 0.8 μg/mL (~2 μM)
T3 construct: His-tag (N); made in house
T3 sequence (O14920 1-756): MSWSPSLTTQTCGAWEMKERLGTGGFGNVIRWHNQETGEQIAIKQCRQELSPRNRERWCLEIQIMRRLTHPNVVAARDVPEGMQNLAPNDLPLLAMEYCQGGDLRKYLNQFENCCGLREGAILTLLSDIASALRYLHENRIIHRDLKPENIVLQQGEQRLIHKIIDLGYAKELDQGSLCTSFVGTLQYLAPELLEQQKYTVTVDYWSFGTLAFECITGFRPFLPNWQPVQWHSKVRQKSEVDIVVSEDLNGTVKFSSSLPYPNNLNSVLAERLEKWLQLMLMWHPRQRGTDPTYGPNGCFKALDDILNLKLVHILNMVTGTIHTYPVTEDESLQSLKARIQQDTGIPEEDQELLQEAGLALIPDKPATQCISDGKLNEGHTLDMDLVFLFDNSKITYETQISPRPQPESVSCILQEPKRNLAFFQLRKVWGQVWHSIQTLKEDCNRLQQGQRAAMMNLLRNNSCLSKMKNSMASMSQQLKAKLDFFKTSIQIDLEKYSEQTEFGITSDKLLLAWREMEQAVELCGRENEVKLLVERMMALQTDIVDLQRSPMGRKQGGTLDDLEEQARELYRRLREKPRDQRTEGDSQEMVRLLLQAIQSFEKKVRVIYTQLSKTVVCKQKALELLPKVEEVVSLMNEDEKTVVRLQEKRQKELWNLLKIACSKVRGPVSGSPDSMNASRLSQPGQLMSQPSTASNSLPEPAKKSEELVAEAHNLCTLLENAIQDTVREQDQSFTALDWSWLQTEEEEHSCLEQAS
Protocol: as §1

[4] = molecular target: T4, Drak2 (Homo sapiens, UniProt O94768); test: Drak2 kinase assay (ADP-GLO); type: biochemical; details: read-out: Drak2 inhibition% at 0.8 μg/mL (~2 μM)
T4 sequence (O94768 1-372): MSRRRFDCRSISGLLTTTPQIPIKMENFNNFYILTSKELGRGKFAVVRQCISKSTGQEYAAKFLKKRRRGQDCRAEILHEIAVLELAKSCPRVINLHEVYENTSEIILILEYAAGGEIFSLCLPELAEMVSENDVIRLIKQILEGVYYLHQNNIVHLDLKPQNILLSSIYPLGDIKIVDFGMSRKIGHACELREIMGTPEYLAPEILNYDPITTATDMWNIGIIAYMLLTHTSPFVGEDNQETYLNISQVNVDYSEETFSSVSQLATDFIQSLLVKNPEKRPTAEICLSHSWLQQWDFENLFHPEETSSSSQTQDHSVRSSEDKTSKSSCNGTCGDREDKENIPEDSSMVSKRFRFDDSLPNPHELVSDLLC
Protocol: as §1

[5] = system: Tau phosphorylation at Ser 396 in SH-SY5Y cells; test: Aβ25-35-induced Tau phosphorylation (Ser396) in SH-SY5Y cells, Western blotting; type: cell-based, human; details: 100 nM, inhibitors 1 hour, then Aβ25–35 6 hours, Western blot
Protocol: It has been implicated that GSK-3β is involved in multiple cellular processes, and its ability to hyperphosphorylate Tau protein and induce neurofibrillary tangle was intensively studied. Therefore, the cell-based assay examining Tau phosphorylation at Serine 396 represents a direct functional assay to measure the cellular activity of GSK-3β inhibitors. Compounds 7c, 7f, 7j–l and 7o–q were tested for the ability to reduce Tau phosphorylation at Ser 396 in human neuroblastoma SH-SY5Y cells. LiCl, a well-known inhibitor of GSK-3β [24], was used as a positive control in this assay. […] The Aβ-induced Tau hyperphosphorylation results in neurofibrillary tangle formation, which plays an important role in Alzheimer’s disease. […] In addition, the predictions about these compounds’ brain permeability were performed using ADME module with Discovery Studio 2.1 software package.
SH-SY5Y human neuroblastoma cells were obtained from the American Type Culture Collection (ATCC, Manassas, VA, USA). Cells were cultured in 1:1 DMEM:Ham's F12 containing 10% (v/v) fetal bovine serum (HyClone, Logan, UT, USA), 1% penicillin, and 1% streptomycin at a humidified atmosphere with 5% CO2. The medium was changed every 2 days. […] Antigen-antibody complexes were detected by the ECL Kit.

T1 sequence (P49841 whole entry): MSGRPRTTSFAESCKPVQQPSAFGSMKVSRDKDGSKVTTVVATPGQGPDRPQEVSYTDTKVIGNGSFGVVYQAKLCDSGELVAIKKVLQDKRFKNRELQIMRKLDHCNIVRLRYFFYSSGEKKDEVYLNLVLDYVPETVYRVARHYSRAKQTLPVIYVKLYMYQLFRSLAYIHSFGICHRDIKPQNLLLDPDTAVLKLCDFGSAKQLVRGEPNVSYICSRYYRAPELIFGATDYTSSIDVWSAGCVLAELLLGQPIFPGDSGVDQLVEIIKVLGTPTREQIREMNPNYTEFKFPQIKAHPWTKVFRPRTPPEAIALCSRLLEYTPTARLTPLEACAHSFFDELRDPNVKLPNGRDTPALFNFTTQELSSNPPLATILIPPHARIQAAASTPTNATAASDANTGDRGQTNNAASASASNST
T2 sequence (O60674 whole entry): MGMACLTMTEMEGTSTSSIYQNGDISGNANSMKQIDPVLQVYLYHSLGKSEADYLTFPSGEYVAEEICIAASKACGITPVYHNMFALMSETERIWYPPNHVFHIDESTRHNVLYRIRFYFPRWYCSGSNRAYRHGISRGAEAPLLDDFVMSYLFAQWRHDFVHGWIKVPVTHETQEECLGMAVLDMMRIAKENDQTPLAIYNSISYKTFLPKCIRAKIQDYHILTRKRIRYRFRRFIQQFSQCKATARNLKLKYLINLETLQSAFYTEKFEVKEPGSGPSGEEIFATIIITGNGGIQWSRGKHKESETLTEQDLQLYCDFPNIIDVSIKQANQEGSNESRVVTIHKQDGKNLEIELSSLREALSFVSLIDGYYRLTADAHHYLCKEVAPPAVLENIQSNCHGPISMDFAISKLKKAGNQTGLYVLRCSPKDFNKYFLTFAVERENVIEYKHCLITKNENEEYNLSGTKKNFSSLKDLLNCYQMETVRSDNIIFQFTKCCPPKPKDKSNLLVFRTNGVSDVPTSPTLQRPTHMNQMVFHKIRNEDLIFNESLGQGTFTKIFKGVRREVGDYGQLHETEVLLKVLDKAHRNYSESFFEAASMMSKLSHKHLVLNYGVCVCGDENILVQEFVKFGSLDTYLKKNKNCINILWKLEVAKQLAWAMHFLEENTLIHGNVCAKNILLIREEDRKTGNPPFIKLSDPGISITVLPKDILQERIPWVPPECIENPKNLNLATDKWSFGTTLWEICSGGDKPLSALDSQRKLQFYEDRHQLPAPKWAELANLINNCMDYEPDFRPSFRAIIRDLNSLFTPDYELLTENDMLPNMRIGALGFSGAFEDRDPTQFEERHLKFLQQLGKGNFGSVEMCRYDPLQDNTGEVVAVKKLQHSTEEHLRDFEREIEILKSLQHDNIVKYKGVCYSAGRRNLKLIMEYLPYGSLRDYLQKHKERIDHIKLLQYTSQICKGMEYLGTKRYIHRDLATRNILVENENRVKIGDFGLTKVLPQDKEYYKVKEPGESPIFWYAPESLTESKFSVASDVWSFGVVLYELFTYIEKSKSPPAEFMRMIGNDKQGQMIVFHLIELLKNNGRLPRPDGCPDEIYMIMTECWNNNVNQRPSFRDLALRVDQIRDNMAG

IC50 ([1]; 50 nM enzyme, 30 μM ATP, 2 μM substrate peptide, triplicate, mean ± SE, read-out: GSK-3β inhibitory activity IC50 (nM) ± SE): 10.2 ± 5.9 nM | GSK-3β inhibitory activity, fold increase as compared to 7h ([1]; ratio of IC50 values, versus 7h): 14 fold | Selectivity for GSK-3β over other tested kinases ([1]; versus PKC-epsilon, JAK2, BRAF, IKK2 and Drak2): high selectivity | inhibition at 2 µM [2]: 0.1% | inhibition at 2 µM [3]: 13.1% | inhibition at 2 µM [4]: 1.67%
Structure (SMILES): O=C1NC(=O)C(c2cn(CCCN3CCOCC3)c3ccc(Br)cc23)=C1c1noc2ccccc12 [7c, 3-(Benzo[d]isoxazol-3-yl)-4-(5-bromo-1-(3-morpholinopropyl)-1H-indol-3-yl)-1H-pyrrole-2,5-dione]
Effect on Aβ25-35-induced Tau phosphorylation at Ser 396 [5]: obviously reduce

— article PMC6270165, “Synthesis and Biological Evaluation of 3-Benzisoxazolyl-4-indolylmaleimides as Potent, Selective Inhibitors of Glycogen Synthase Kinase-3β” (Molecules, 2013)
